Results on 12 compounds are retold here after patent US11667649B2, “Heteroaromatic macrocyclic ether chemotherapeutic agents” (Nuvalent, Inc., priority 2020, dated 2023).

This assay has as its system TPM3-NTRK1-wt IC50 / primary target (e.g. CD74-ROS1-wt) IC50, Ba/F3 cells. The assay is described as follows: Cell assay TRKA selectivity (TRKA potency divided by primary target potency). Type of assay: cell-based. As to conditions: for TPM3-NTRK1-wt/CD74-ROS1-G2032R: TRKA selectivity ratio: TPM3-NTRK1-wt IC50 / CD74-ROS1-G2032R IC50, Ba/F3 cells; for TPM3-NTRK1-wt/CD74-ROS1-wt: TRKA selectivity ratio: TPM3-NTRK1-wt IC50 / CD74-ROS1-wt IC50, Ba/F3 cells; for TPM3-NTRK1-wt/EML4-ALK-L1196M-G1202R: TRKA selectivity ratio: TPM3-NTRK1-wt IC50 / EML4-ALK-L1196M-G1202R IC50, Ba/F3 cells; for TPM3-NTRK1-wt/EML4-ALK-wt: TRKA selectivity ratio: TPM3-NTRK1-wt IC50 / EML4-ALK-wt IC50, Ba/F3 cells. From the text:
Genes encoding CD74-ROS1 wild-type (wt), CD74-ROS1 G2032R, CD74-ROS1 S1986F, CD74-ROS1 L2026M, CD74-ROS1 D2033N, EML4-ALK wt (variant 1), EML4-ALK G1202R (variant 1), EML4-ALK L1196M/G1202R (variant 1), EML4-ALK G1202R/G1269A (variant 1), EML4-ALK G1202R/L1198F (variant 1), and TPM3-TRKA were synthesized at GeneRay, cloned into the retroviral construct pMSCV-puro (Biovector), and packaged into retroviral particles. The virus was used to infect Ba/F3 cells (RIKEN) at multiplicity of infection=1 for 1 day. Infected cells were rescued in media (RPMI-1640 with 10% fetal bovine serum and 1% streptomycin and penicillin) supplemented with mouse IL-3 (10 ng/mL) for 2 days, and stable cell lines were selected by IL-3 withdrawal and puromycin (0.8 μg/mL) for 7 days. Monoclones were selected by single-cell dilution in IL-3-free medium containing puromycin (0.8 μg/mL). Transformation of desired genes was confirmed by Sanger sequencing and western blot using the following antibodies: ROS1 (CST #3287), ALK (CST #3633), and pan-TRK (Abcam #76291).
Stable cells were plated at 1,000 cells/well (40 μL) in a 384-well plate for 1 day. Test compounds (40 nL) were then added in a 3-fold dilution series using the TECAN EVO200 liquid handler and incubated for 72 hours. Plates were equilibrated at room temperature for 15 minutes followed by addition of 40 μL CellTiter-Glo reagent (Promega). Luminescence was measured on a plate reader. Half-maximal inhibitory concentration (IC50) was calculated from percent inhibition and inhibitor concentration using four-parameter logistic regression. […] Exemplary data is given in Table 4 (nd is not determined).
TRKA selectivity was calculated by dividing a compound's TRKA potency by its primary target potency (e.g. TPM3-NTRK1-wt IC50/CD74-ROS1-wt IC50). Compound selectivity can be interpreted by binning ratio values: bin A for very high selectivity, ratio>30-fold; bin B for high selectivity, ratio>10-fold; bin C for moderate selectivity, ratio≥1; and bin D for low selectivity, ratio<1. […] (nd=not determined).

`CCn1ncc2c1-c1cnc(N)c(c1)O[C@H](C)c1cc(F)ccc1-c1nn(C)cc1C2` [Example 1, (19R)-3-ethyl-16-fluoro-10,19-dimethyl-20-oxa-3,4,10,11,23-pentaazapentacyclo[19.3.1.0^2,^60^8,^12.0^13,^18]pentacosa-1(24),2(6),4,8,11,13,15,17,21(25),22-decaen-22-amine]: the TPM3-NTRK1-wt/CD74-ROS1-G2032R result was “A (bin A for very high selectivity, ratio>30-fold)”; the TPM3-NTRK1-wt/CD74-ROS1-wt entry is listed as “A (bin A for very high selectivity, ratio>30-fold)”; the TPM3-NTRK1-wt/EML4-ALK-L1196M-G1202R result is given as “A (bin A for very high selectivity, ratio>30-fold)”; the TPM3-NTRK1-wt/EML4-ALK-wt result is given as “A (bin A for very high selectivity, ratio>30-fold)”.

In the case of `CC1Oc2cc(cnc2N)-c2c(cnn2C)Cc2cnn(C)c2-c2ccc(F)cc21` (stereo not drawn) [Example 2, 16-fluoro-3,11,19-trimethyl-20-oxa-3,4,10,11,23-pentaazapentacyclo[19.3.1.0^2,^6.0^8,^12.0^13,^18]pentacosa-1(24),2(6),4,8(12),9,13,15,17,21(25),22-decaen-22-amine], the TPM3-NTRK1-wt/CD74-ROS1-G2032R entry is given as “B (bin B for high selectivity, ratio>10-fold)”; the TPM3-NTRK1-wt/CD74-ROS1-wt entry is listed as “A (bin A for very high selectivity, ratio>30-fold)”; the TPM3-NTRK1-wt/EML4-ALK-L1196M-G1202R entry was “D (bin D for low selectivity, ratio<1)”; the TPM3-NTRK1-wt/EML4-ALK-wt result was “B (bin B for high selectivity, ratio>10-fold)”.

In the case of `CCn1ncc2c1-c1cnc(N)c(c1)O[C@H](C)c1cc(F)ccc1-c1ncccc1C2` [Example 3, (20R)-3-ethyl-17-fluoro-20-methyl-21-oxa-3,4,12,24-tetraazapentacyclo[20.3.1.0^2,^6.0^8,^13.0^14,^19]hexacosa-1(25),2(6),4,8(13),9,11,14,16,18,22(26),23-undecaen-23-amine], the TPM3-NTRK1-wt/CD74-ROS1-G2032R result is “A (bin A for very high selectivity, ratio>30-fold)”; the TPM3-NTRK1-wt/EML4-ALK-L1196M-G1202R result is listed as “B (bin B for high selectivity, ratio>10-fold)”; the TPM3-NTRK1-wt/EML4-ALK-wt entry is “A (bin A for very high selectivity, ratio>30-fold)”.

Regarding `CCn1ncc2c1-c1ccc(F)cc1[C@@H](C)Oc1cc(cnc1N)-c1c(cnn1C)C2` [Example 4, (19R)-11-ethyl-16-fluoro-3,19-dimethyl-20-oxa-3,4,10,11,23-pentaazapentacyclo[19.3.1.0^2,^6.0^8,^12.0^13,^18]pentacosa-1(24),2(6),4,8(12),9,13,15,17,21(25),22-decaen-22-amine], the TPM3-NTRK1-wt/CD74-ROS1-G2032R result was “B (bin B for high selectivity, ratio>10-fold)”; the TPM3-NTRK1-wt/CD74-ROS1-wt entry was “A (bin A for very high selectivity, ratio>30-fold)”; the TPM3-NTRK1-wt/EML4-ALK-L1196M-G1202R entry is “D (bin D for low selectivity, ratio<1)”; the TPM3-NTRK1-wt/EML4-ALK-wt result is “C (bin C for moderate selectivity, ratio≥1)”.

Take `C[C@H]1Oc2cc(cnc2N)-c2c(cnn2C2CCC2)Cc2cnn(C)c2-c2ccc(F)cc21` [Example 5, (19R)-3-cyclobutyl-16-fluoro-11,19-dimethyl-20-oxa-3,4,10,11,23-pentaazapentacyclo[19.3.1.0^2,^6.0^8,^12.0^13,^18]pentacosa-1(24),2(6),4,8(12),9,13,15,17,21(25),22-decaen-22-amine]: the TPM3-NTRK1-wt/CD74-ROS1-G2032R entry was “A (bin A for very high selectivity, ratio>30-fold)”; the TPM3-NTRK1-wt/CD74-ROS1-wt entry is given as “A (bin A for very high selectivity, ratio>30-fold)”; the TPM3-NTRK1-wt/EML4-ALK-L1196M-G1202R entry is on record as “A (bin A for very high selectivity, ratio>30-fold)”; the TPM3-NTRK1-wt/EML4-ALK-wt result is given as “A (bin A for very high selectivity, ratio>30-fold)”.

Turning to `CCc1c(C#N)nn2c1-c1cnc(N)c(c1)O[C@H](C)c1cc(F)ccc1-c1nn(C)cc1C2` [Example 6, (19R)-22-amino-3-ethyl-16-fluoro-10,19-dimethyl-20-oxa-5,6,10,11,23-pentaazapentacyclo[19.3.1.0^2,^6.0^8,^12.0^13,^18]pentacosa-1(24),2,4,8,11,13,15,17,21(25),22-decaene-4-carbonitrile], the TPM3-NTRK1-wt/CD74-ROS1-G2032R result is “A (bin A for very high selectivity, ratio>30-fold)”; the TPM3-NTRK1-wt/CD74-ROS1-wt result is reported as “A (bin A for very high selectivity, ratio>30-fold)”; the TPM3-NTRK1-wt/EML4-ALK-L1196M-G1202R entry was “C (bin C for moderate selectivity, ratio≥1)”; the TPM3-NTRK1-wt/EML4-ALK-wt result was “A (bin A for very high selectivity, ratio>30-fold)”.

`Cn1cc2c(n1)-c1ccc(F)cc1COc1cc(cnc1N)-c1c(cnn1C1CCC1)C2` [Example 7, 3-cyclobutyl-16-fluoro-10-methyl-20-oxa-3,4,10,11,23-pentaazapentacyclo[19.3.1.0^2,^6.0^8,^12.0^13,^18]pentacosa-1(24),2(6),4,8,11,13,15,17,21(25),22-decaen-22-amine]: the TPM3-NTRK1-wt/CD74-ROS1-G2032R entry was “A (bin A for very high selectivity, ratio>30-fold)” and the TPM3-NTRK1-wt/EML4-ALK-L1196M-G1202R result was “A (bin A for very high selectivity, ratio>30-fold)”.

`CCn1ncc2c1-c1cnc(N)c(c1)OCc1cc(F)ccc1-c1ncccc1C2` [Example 8, 3-ethyl-17-fluoro-21-oxa-3,4,12,24-tetraazapentacyclo[20.3.1.0^2,^6.0^8,^13.0^14,^19]hexacosa-1(25),2(6),4,8(13),9,11,14,16,18,22(26),23-undecaen-23-amine]: the TPM3-NTRK1-wt/CD74-ROS1-G2032R entry is “A (bin A for very high selectivity, ratio>30-fold)”; the TPM3-NTRK1-wt/CD74-ROS1-wt entry is reported as “A (bin A for very high selectivity, ratio>30-fold)”; the TPM3-NTRK1-wt/EML4-ALK-L1196M-G1202R entry was “B (bin B for high selectivity, ratio>10-fold)”; the TPM3-NTRK1-wt/EML4-ALK-wt result is reported as “A (bin A for very high selectivity, ratio>30-fold)”.

With `C[C@H]1Oc2cc(cnc2N)-c2c(C#N)cnn2Cc2cn(C)nc2-c2ccc(F)cc21` [Example 9, (19R)-22-amino-16-fluoro-10,19-dimethyl-20-oxa-5,6,10,11,23-pentaazapentacyclo[19.3.1.0^2,^6.0^8,^12.0^13,^18]pentacosa-1(24),2,4,8,11,13,15,17,21(25),22-decaene-3-carbonitrile], the TPM3-NTRK1-wt/CD74-ROS1-G2032R entry is on record as “B (bin B for high selectivity, ratio>10-fold)”; the TPM3-NTRK1-wt/CD74-ROS1-wt entry is “A (bin A for very high selectivity, ratio>30-fold)”; the TPM3-NTRK1-wt/EML4-ALK-L1196M-G1202R entry is given as “C (bin C for moderate selectivity, ratio≥1)”; the TPM3-NTRK1-wt/EML4-ALK-wt result is listed as “A (bin A for very high selectivity, ratio>30-fold)”.

For `C[C@H]1Oc2cc(cnc2N)-c2c(C#N)ncn2Cc2cnccc2-c2ccc(F)cc21` [Example 10, (20R)-23-amino-17-fluoro-20-methyl-21-oxa-4,6,10,24-tetraazapentacyclo[20.3.1.0^2,^6.0^8,^13.0^14,^19]hexacosa-1(25),2,4,8(13),9,11,14,16,18,22(26),23-undecaene-3-carbonitrile], the TPM3-NTRK1-wt/CD74-ROS1-G2032R result was “A (bin A for very high selectivity, ratio>30-fold)”; the TPM3-NTRK1-wt/CD74-ROS1-wt result is listed as “D (bin D for low selectivity, ratio<1)”; the TPM3-NTRK1-wt/EML4-ALK-L1196M-G1202R entry is listed as “C (bin C for moderate selectivity, ratio≥1)”; the TPM3-NTRK1-wt/EML4-ALK-wt result is reported as “A (bin A for very high selectivity, ratio>30-fold)”.

`C[C@H]1Oc2cc(cnc2N)-c2c(C#N)ncn2Cc2ccncc2-c2ccc(F)cc21` [Example 11, (20R)-23-amino-17-fluoro-20-methyl-21-oxa-4,6,11,24-tetraazapentacyclo[20.3.1.0^2,^6.0^8,^13.0^14,^19]hexacosa-1(25),2,4,8(13),9,11,14,16,18,22(26),23-undecaene-3-carbonitrile]: the TPM3-NTRK1-wt/CD74-ROS1-G2032R result was “A (bin A for very high selectivity, ratio>30-fold)”; the TPM3-NTRK1-wt/CD74-ROS1-wt result is listed as “A (bin A for very high selectivity, ratio>30-fold)”; the TPM3-NTRK1-wt/EML4-ALK-L1196M-G1202R entry was “C (bin C for moderate selectivity, ratio≥1)”; the TPM3-NTRK1-wt/EML4-ALK-wt result was “A (bin A for very high selectivity, ratio>30-fold)”.

As for `C[C@H]1Oc2cc(cnc2N)-c2c(C#N)ncn2Cc2cccnc2-c2ccc(F)cc21` [Example 12, (20R)-23-amino-17-fluoro-20-methyl-21-oxa-4,6,12,24-tetraazapentacyclo[20.3.1.0^2,^6.0^8,^13.0^14,^19]hexacosa-1(25),2,4,8(13),9,11,14,16,18,22(26),23-undecaene-3-carbonitrile], the TPM3-NTRK1-wt/CD74-ROS1-G2032R result was “A (bin A for very high selectivity, ratio>30-fold)”; the TPM3-NTRK1-wt/CD74-ROS1-wt result was “A (bin A for very high selectivity, ratio>30-fold)”; the TPM3-NTRK1-wt/EML4-ALK-L1196M-G1202R result was “A (bin A for very high selectivity, ratio>30-fold)”; the TPM3-NTRK1-wt/EML4-ALK-wt result is reported as “A (bin A for very high selectivity, ratio>30-fold)”.
